# Assay results reported in patent publication US11053204B2, “Pyrimidinyloxy benzene derivatives as herbicides” (FMC Corporation, priority 2015, dated 2021).
# Tests used:
# Assay type in all cases: in vivo
# [1] = system: barnyardgrass (Echinochloa crus-galli); assay: Test A preemergence, visual injury rating; conditions: for Plant response rating, Barnyardgrass: 31 g ai/ha, 0 to 100 scale, 0 no effect, 100 complete control; for Barnyardgrass plant response rating: 125 g ai/ha, 0 to 100 scale (0 no effect, 100 complete control)
# How it was run: (§1)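 Visual injury scored 0–100 (100 = complete control) against untreated controls about 10 days after treatment in a greenhouse. Test chemicals, formulated with surfactant in non-phytotoxic solvent, were sprayed on soil preemergence or on 2-10 cm, one- to two-leaf plants postemergence.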
# [2] = system: Italian ryegrass (Lolium multiflorum); assay: Test A preemergence, visual injury rating; conditions: for Plant response rating, Ryegrass, Italian: 31 g ai/ha, 0 to 100 scale, 0 no effect, 100 complete control; for Ryegrass, Italian plant response rating: 125 g ai/ha, 0 to 100 scale (0 no effect, 100 complete control)
# How it was run: as §1
# [3] = system: giant foxtail (Setaria faberii); assay: Test A preemergence, visual injury rating; conditions: for Plant response rating, Foxtail, Giant: 31 g ai/ha, 0 to 100 scale, 0 no effect, 100 complete control; for Foxtail, Giant plant response rating: 125 g ai/ha, 0 to 100 scale (0 no effect, 100 complete control)
# How it was run: as §1
# [4] = system: ragweed (common ragweed, Ambrosia elatior); assay: Test A preemergence, visual injury rating; conditions: for Plant response rating, Ragweed: 31 g ai/ha, 0 to 100 scale, 0 no effect, 100 complete control; for Ragweed plant response rating: 125 g ai/ha, 0 to 100 scale (0 no effect, 100 complete control)
# How it was run: as §1
# kochia (Kochia scoparia) [5] = assay: Test A preemergence, visual injury rating; conditions: for Plant response rating, Kochia: 31 g ai/ha, 0 to 100 scale, 0 no effect, 100 complete control; for Kochia plant response rating: 125 g ai/ha, 0 to 100 scale (0 no effect, 100 complete control)
# How it was run: as §1
# [6] = system: pigweed (Amaranthus retroflexus); assay: Test A preemergence, visual injury rating; conditions: for Plant response rating, Pigweed: 31 g ai/ha, 0 to 100 scale, 0 no effect, 100 complete control; for Pigweed plant response rating: 125 g ai/ha, 0 to 100 scale (0 no effect, 100 complete control)
# How it was run: as §1
# [7] = system: barnyardgrass (Echinochloa crus-galli); assay: Test B flooded paddy test, plant response rating; conditions: 250 g ai/ha; Flood; scale of 0 to 100 where 0 is no effect and 100 is complete control; 13 to 15 days
# How it was run: (§2)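 Pots were flooded to 3 cm above the soil surface at treatment, compound applied directly to the paddy water, and that depth held throughout. Plants were kept in a greenhouse for 13 to 15 days, then visually rated against untreated controls.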
# rice (Oryza sativa) = assay: Test B flooded paddy test, plant response rating; conditions: 250 g ai/ha; Flood; scale of 0 to 100 where 0 is no effect and 100 is complete control; 13 to 15 days
# How it was run: as §2
# [8] = system: ducksalad (Heteranthera limosa); assay: Test B flooded paddy test, plant response rating; conditions: 250 g ai/ha; Flood; scale of 0 to 100 where 0 is no effect and 100 is complete control; 13 to 15 days
# How it was run: as §2
# [9] = system: sedge, umbrella (small-flower umbrella sedge, Cyperus difformis); assay: Test B flooded paddy test, plant response rating; conditions: 250 g ai/ha; Flood; scale of 0 to 100 where 0 is no effect and 100 is complete control; 13 to 15 days
# How it was run: as §2
# [10] = system: barnyardgrass (Echinochloa crus-galli); assay: Test A postemergence, visual injury rating; conditions: 0 is no effect, 100 is complete control; for Barnyardgrass plant response rating: 31 g ai/ha, 0 to 100 scale, approximately 10 days; for Barnyardgrass plant response rating (0 to 100 scale): 125 g ai/ha
# How it was run: as §1
# [11] = system: Italian ryegrass (Lolium multiflorum); assay: Test A postemergence, visual injury rating; conditions: 0 is no effect, 100 is complete control; for Ryegrass, Italian plant response rating: 31 g ai/ha, 0 to 100 scale, approximately 10 days; for Ryegrass, Italian plant response rating (0 to 100 scale): 125 g ai/ha
# How it was run: as §1
# [12] = system: giant foxtail (Setaria faberii); assay: Test A postemergence, visual injury rating; conditions: 0 is no effect, 100 is complete control; for Foxtail, Giant plant response rating: 31 g ai/ha, 0 to 100 scale, approximately 10 days; for Foxtail, Giant plant response rating (0 to 100 scale): 125 g ai/ha
# How it was run: as §1
# [13] = system: ragweed (common ragweed, Ambrosia elatior); assay: Test A postemergence, visual injury rating; conditions: 0 is no effect, 100 is complete control; for Ragweed plant response rating: 31 g ai/ha, 0 to 100 scale, approximately 10 days; for Ragweed plant response rating (0 to 100 scale): 125 g ai/ha
# How it was run: as §1
# [14] = system: galium (catchweed bedstraw, Galium aparine); assay: Test A postemergence, visual injury rating; conditions: 0 is no effect, 100 is complete control; for Galium plant response rating: 31 g ai/ha, 0 to 100 scale, approximately 10 days; for Galium plant response rating (0 to 100 scale): 125 g ai/ha
# How it was run: as §1
# corn (Zea mays) = assay: Test A postemergence, visual injury rating; conditions: 0 is no effect, 100 is complete control; for Corn plant response rating: 31 g ai/ha, 0 to 100 scale, approximately 10 days; for Corn plant response rating (0 to 100 scale): 125 g ai/ha
# How it was run: as §1
# kochia (Kochia scoparia) [15] = assay: Test A postemergence, visual injury rating; conditions: 0 is no effect, 100 is complete control; for Kochia plant response rating: 31 g ai/ha, 0 to 100 scale, approximately 10 days; for Kochia plant response rating (0 to 100 scale): 125 g ai/ha
# How it was run: as §1
# [16] = system: pigweed (Amaranthus retroflexus); assay: Test A postemergence, visual injury rating; conditions: 0 is no effect, 100 is complete control; for Pigweed plant response rating: 31 g ai/ha, 0 to 100 scale, approximately 10 days; for Pigweed plant response rating (0 to 100 scale): 125 g ai/ha
# How it was run: as §1
# [17] = system: blackgrass (Alopecurus myosuroides); assay: Test A postemergence, visual injury rating; conditions: 0 is no effect, 100 is complete control; for Blackgrass plant response rating: 31 g ai/ha, 0 to 100 scale, approximately 10 days; for Blackgrass plant response rating (0 to 100 scale): 125 g ai/ha
# How it was run: as §1
# [18] = system: wheat (Triticum aestivum); assay: Test A postemergence, visual injury rating; conditions: 0 is no effect, 100 is complete control; for Wheat plant response rating: 31 g ai/ha, 0 to 100 scale, approximately 10 days; for Wheat plant response rating (0 to 100 scale): 125 g ai/ha
# How it was run: as §1
SMILES,"Plant response rating, Barnyardgrass [1]",Barnyardgrass plant response rating [1],"Plant response rating, Ryegrass, Italian [2]","Ryegrass, Italian plant response rating [2]","Plant response rating, Foxtail, Giant [3]","Foxtail, Giant plant response rating [3]","Plant response rating, Ragweed [4]",Ragweed plant response rating [4],"Plant response rating, Kochia (kochia (Kochia scoparia) [5])",Kochia plant response rating (kochia (Kochia scoparia) [5]),"Plant response rating, Pigweed [6]",Pigweed plant response rating [6],"Plant response rating, Barnyardgrass [7]","Plant response rating, Rice (rice (Oryza sativa))","Plant response rating, Ducksalad [8]","Plant response rating, Sedge, Umbrella [9]",Barnyardgrass plant response rating [10],Barnyardgrass plant response rating (0 to 100 scale) [10],"Ryegrass, Italian plant response rating [11]","Ryegrass, Italian plant response rating (0 to 100 scale) [11]",also measured
O=C(OC1CCCC1)c1c(Br)cccc1Oc1ncc(Cl)cn1 [Compound 44],0,0,0,0,0,40,0,0,0,0,0,0,0,0,0,30,0,0,0,0,"Foxtail, Giant plant response rating [12]: 0; Foxtail, Giant plant response rating (0 to 100 scale) [12]: 0; Ragweed plant response rating [13]: 0; Ragweed plant response rating (0 to 100 scale) [13]: 0; Galium plant response rating [14]: 0; Galium plant response rating (0 to 100 scale) [14]: 0; Corn plant response rating (corn (Zea mays)): 0; Corn plant response rating (0 to 100 scale) (corn (Zea mays)): 0; Kochia plant response rating (kochia (Kochia scoparia) [15]): 0; Kochia plant response rating (0 to 100 scale) (kochia (Kochia scoparia) [15]): 0; Pigweed plant response rating [16]: 0; Pigweed plant response rating (0 to 100 scale) [16]: 0; Blackgrass plant response rating [17]: 0; Blackgrass plant response rating (0 to 100 scale) [17]: 0; Wheat plant response rating [18]: 0; Wheat plant response rating (0 to 100 scale) [18]: 0"
COc1cccc(Oc2ncc(Cl)cn2)c1C(C)=O [Compound 51],0,0,0,0,0,0,0,0,0,0,0,0,15,15,0,0,0,0,0,0,"Foxtail, Giant plant response rating [12]: 0; Foxtail, Giant plant response rating (0 to 100 scale) [12]: 0; Ragweed plant response rating [13]: 0; Ragweed plant response rating (0 to 100 scale) [13]: 0; Galium plant response rating [14]: 0; Galium plant response rating (0 to 100 scale) [14]: 10; Corn plant response rating (corn (Zea mays)): 0; Corn plant response rating (0 to 100 scale) (corn (Zea mays)): 0; Kochia plant response rating (kochia (Kochia scoparia) [15]): 0; Kochia plant response rating (0 to 100 scale) (kochia (Kochia scoparia) [15]): 0; Pigweed plant response rating [16]: 0; Pigweed plant response rating (0 to 100 scale) [16]: 0; Blackgrass plant response rating [17]: 0; Blackgrass plant response rating (0 to 100 scale) [17]: 0; Wheat plant response rating [18]: 0; Wheat plant response rating (0 to 100 scale) [18]: 0"
